The target of one assay is USP30 (Homo sapiens (Human), UniProt Q70CQ3). The assay can be described thus: Dundee MALDI-TOF mass spectrometry assay (K48-linked diubiquitin cleavage). The assay is classed as biochemical. The settings on record: USP30 25 ng/μl, K48-linked diubiquitin 5.6 μM. Here is the method:
USP30 was diluted in a buffer containing 40 mM Tris, 0.01% BSA, 1 mM DTT and K48 in 40 mM Tris, 0.01% BSA.
The compounds were pre-incubated with the USP30 for 5 mins at room temp before the K48 dimer addition. The assay mixture was then incubated for 45 mins at room temp. The assay was stopped by the addition of TFA to a final concentration of 2% (v/v).
Acidified samples of the DUB assays were mixed with 0.5 mM 15N-ubiquitin and then with one part of 2% (v/v) TFA and one part of 2.5 DHAP matrix solution (7.6 mg of 2.5 DHAP in […] ethanol and […] of an aqueous 12 mg ml 1 diammonium hydrogen citrate).

In assay [1] the target is recombinant USP30 (amino acids 57-517 of the human sequence) (Homo sapiens (Human), UniProt Q70CQ3). The assay can be described thus: In vitro USP30 biochemical assay (Ubiquitin-Rhodamine substrate). The settings on record: fluorescence. Here is the method: In vitro biochemical assay to establish the potency of compounds for USP30 inhibition: a 384-well plate assay using a fluorophore tagged substrate of USP30 was used for in vitro screening of compounds. Each compound was tested at
10 different concentrations (0.5 to 10,000 nM) in duplicate wells. […] Data were analyzed using Graph Pad Prism software with a four-parameter (floating slope) fit to log concentration data to determine IC50s.

The mark [2] stands for this setting: 1.5 nM recombinant USP30, 25 nM Ubiquitin-Rhodamine.
Where [3] appears, read: […] recombinant USP30, 25 nM Ubiquitin-Rhodamine.

Molecules are shown by their SMILES. Where two headings read alike, the source gives them in different places.

This passage reports IC50 results from patent US20250162989A1, “USP30 INHIBITORS AND USES THEREOF” (Vincere Biosciences, Inc., priority 2021, published 2025).

Chain of recombinant USP30 (amino acids 57-517 of the human sequence) (Q70CQ3 57-517): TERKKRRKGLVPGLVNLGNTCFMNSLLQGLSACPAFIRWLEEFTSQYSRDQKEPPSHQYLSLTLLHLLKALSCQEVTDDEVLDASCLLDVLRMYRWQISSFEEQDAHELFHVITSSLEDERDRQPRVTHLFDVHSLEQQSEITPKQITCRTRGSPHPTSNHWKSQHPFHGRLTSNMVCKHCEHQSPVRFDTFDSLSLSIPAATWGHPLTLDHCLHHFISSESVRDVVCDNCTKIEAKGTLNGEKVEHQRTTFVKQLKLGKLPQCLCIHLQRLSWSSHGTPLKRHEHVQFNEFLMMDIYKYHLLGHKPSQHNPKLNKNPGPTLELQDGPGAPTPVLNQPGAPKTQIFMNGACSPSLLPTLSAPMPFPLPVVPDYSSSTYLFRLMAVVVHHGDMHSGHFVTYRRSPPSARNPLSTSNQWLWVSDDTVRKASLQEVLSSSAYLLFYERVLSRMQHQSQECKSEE
Chain of USP30 (Q70CQ3 whole entry): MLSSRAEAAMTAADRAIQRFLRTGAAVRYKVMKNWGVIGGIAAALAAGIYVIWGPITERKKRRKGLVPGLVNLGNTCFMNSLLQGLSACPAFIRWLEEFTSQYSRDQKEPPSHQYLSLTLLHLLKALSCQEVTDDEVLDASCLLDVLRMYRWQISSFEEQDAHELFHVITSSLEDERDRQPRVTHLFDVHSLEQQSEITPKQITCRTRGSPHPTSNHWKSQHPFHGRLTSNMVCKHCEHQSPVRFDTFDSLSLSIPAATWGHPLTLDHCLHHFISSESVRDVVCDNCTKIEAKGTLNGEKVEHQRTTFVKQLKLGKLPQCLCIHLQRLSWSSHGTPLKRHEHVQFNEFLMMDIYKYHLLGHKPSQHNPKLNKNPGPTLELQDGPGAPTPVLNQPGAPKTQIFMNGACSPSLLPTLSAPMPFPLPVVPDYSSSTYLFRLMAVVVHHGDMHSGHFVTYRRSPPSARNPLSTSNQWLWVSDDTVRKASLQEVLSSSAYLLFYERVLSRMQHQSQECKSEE

For `COCCC(C)(C)NS(=O)(=O)c1ccc(NC(=O)[C@H](Cc2ccccc2)NC(=O)c2ccc(F)cc2)cc1C(F)(F)F` [Compound I-65], the 50% inhibitory concentration (IC50) (usually the point on the concentration scale where inhibition reaches its midpoint) at USP30 (read-out: IC50) is less than 0.05 µM; in assay [1] (setting [2]), 0.05 to 1 µM. Regarding `COc1cc(NC(=O)[C@H](CC2CCNCC2)NC(=O)c2ccc(F)cc2)ccc1S(=O)(=O)NC1COC1` [Compound I-109, (S)-4-fluoro-N-(1-((3-methoxy-4-(N-(oxetan-3-yl)sulfamoyl)phenyl)amino)-1-oxo-3-(piperidin-4-yl)propan-2-yl)benzamide], the figures for the IC50 (at USP30 (read-out: USP30 IC50 μM (avg)); in assay [1] (setting [2])) were less than 0.05 µM and 0.05 to 1 µM, respectively. The matching figures for `O=C(N[C@@H](Cc1ccccc1)C(=O)Nc1ccc(S(=O)(=O)NC2(CF)CC2)cc1)c1ccc(F)cc1` [Compound I-200]: less than 0.05 µM and 0.05 to 1 µM. On to `CC(C)(C)NS(=O)(=O)c1ccc(NC(=O)C(CC2CCN(C=O)CC2)NC(=O)c2ccc(F)cc2)cc1` (stereo not drawn) [Compound I-145], for which the concentration for half-maximal inhibition (IC50) (at USP30 (read-out: USP30 IC50 μM (avg)); in assay [1] (setting [3])) was less than 0.05 µM each time. On to `CN1CCC(C[C@H](NC(=O)c2ccc(F)cn2)C(=O)Nc2ccc(S(=O)(=O)NC(C)(C)C)cc2)CC1` [Compound I-185, (S)—N-(1-((4-(N-(tert-butyl)sulfamoyl)phenyl)amino)-3-(1-methylpiperidin-4-yl)-1-oxopropan-2-yl)-5-fluoropicolinamide], for which the IC50 (on USP30 (read-out: USP30 IC50 μM (avg)); in assay [1] (setting [3])) was less than 0.05 µM in each case. `COc1cc(NC(=O)[C@H](Cc2ccccc2)NC(=O)c2ccc(F)cc2)ccc1S(=O)(=O)NC1(CO)CC1` [Compound I-141]: the values for the IC50 (on USP30 (read-out: USP30 IC50 μM (avg)); in assay [1] (setting [2])) were less than 0.05 µM and 0.05 to 1 µM, respectively. On the same counts, the results for `C[C@@H](CO)NS(=O)(=O)c1ccc(NC(=O)[C@H](Cc2ccccc2)NC(=O)c2ccc(F)cc2)cc1` [Compound I-129] are less than 0.05 µM and 0.05 to 1 µM. The matching figures for `CC(C)(CO)NS(=O)(=O)c1ccc(NC(=O)C(CC2CCNCC2)NC(=O)c2ccc(F)cc2)cc1` (stereo not drawn) [Compound I-72]: 0.05 to 1 µM and 0.05 to 1 µM. With `CC(C)N1CCC(C[C@H](NC(=O)c2ccc(F)cc2)C(=O)Nc2ccc(S(=O)(=O)NC(C)(C)C)cc2)CC1` [Compound I-117], at USP30 (read-out: USP30 IC50 μM (avg)), the IC50 was less than 0.05 µM. In the case of `COC[C@H](NC(=O)c1ccc(F)cc1)C(=O)Nc1ccc(S(=O)(=O)NC(C)(C)CO)cc1` [Compound I-32], the IC50 in assay [1] (setting [2]) lay in the range of 1 to 10 µM. Same read-out and setting: in the case of `CC(C)(CF)NS(=O)(=O)c1ccc(NC(=O)[C@H](Cc2ccccn2)NC(=O)c2ccc(F)cc2)cc1` [Compound I-213] it was 0.05 to 1 µM; in that of `CC(C)(C)NS(=O)(=O)c1ccc(NC(=O)[C@H](Cc2ccccc2)NC(=O)c2cncnc2)cc1` [Compound I-188], 0.05 to 1 µM. In the case of `O=C(Nc1ccc(S(=O)(=O)N[C@@H]2CCOC2)cc1)[C@@H]1C[C@@H](c2ccccc2)CN1C(=O)c1ccc(F)cc1` [Compound I-92], in assay [1] (setting [3]), the IC50 fell in the range of 1 to 10 µM. The same measure, in the same setting: to `CC(C)C[C@H](NC(=O)c1ccc(F)cc1)C(=O)NC1CN(C#N)C1` [Compound I-251] belongs less than 0.05 µM. As for `O=C(N[C@@H](Cc1ccccc1)C(=O)Nc1ccc(S(=O)(=O)NCc2ccncn2)cc1)c1ccc(F)cc1` [Compound I-222], the 50% inhibitory concentration (IC50) in assay [1] (setting [2]) lay within 0.05 to 1 µM. For `CC(C)(CO)NS(=O)(=O)c1ccc(NC(=O)[C@H](CC2CCOCC2)NC(=O)c2ccc(F)cc2)cn1` [Compound I-74], the IC50 in assay [1] (setting [2]) was 0.05 to 1 µM.

Regarding `COc1cc(NC(=O)[C@H](CC(C)C)NC(=O)c2ccc(F)cc2)cnc1S(=O)(=O)NC(C)(C)C` [Compound I-15], in assay [1] (setting [2]), the IC50 was in the range of 0.05 to 1 µM. The same measure, in the same setting: in the case of `CC(C)C[C@H](NC(=O)c1ccc(F)cc1)C(=O)Nc1ccc(S(=O)(=O)NC(C)(C)C(F)(F)F)nc1` [Compound I-203] it was 0.05 to 1 µM; in that of `CC(C)(C)NS(=O)(=O)c1ccc(NC(=O)[C@H](CC2CCN(C(=O)OCc3ccccc3)CC2)NC(=O)N2CCOCC2)cc1` [Compound I-214], 0.05 to 1 µM. On to `CC(C)(NS(=O)(=O)c1ccc(NC(=O)[C@H](CC2CCOCC2)NC(=O)c2ccc(F)cc2)cc1)C(F)(F)F` [Compound I-126], for which the IC50 in assay [1] (setting [3]) was less than 0.05 µM. With `COc1cc(NC(=O)[C@@H]2C[C@@H](C3CCCCC3)CN2C(=O)c2ccc(F)cc2)ccc1S(=O)(=O)NC(C)(C)CO` [Compound I-259], the IC50 in assay [1] (setting [2]) lay within 0.05 to 1 µM. The same measure, in the same setting: in the case of `O=C(N[C@@H](Cc1ccccc1)C(=O)Nc1ccc(S(=O)(=O)NCc2cnc[nH]2)cc1)c1ccc(F)cc1` [Compound I-239] it was 0.05 to 1 µM. For `CC(C)(C)NS(=O)(=O)c1ccc(NC(=O)C(Cc2ccccc2)c2nnc(-c3ccc(F)cc3)[nH]2)cc1` (stereo not drawn) [Compound I-90], the IC50 in assay [1] (setting [3]) was more than 10 µM. For `O=C(N[C@@H](CCO)C(=O)Nc1ccc(S(=O)(=O)NC2COC2)cc1)c1ccc(F)cc1` [Compound I-31], the IC50 in assay [1] (setting [2]) lay in the range of 1 to 10 µM.

Turning to `COc1cc(NC(=O)[C@H](CC2CCOCC2)NC(=O)c2ccc(F)cc2)ccc1S(=O)(=O)NC1CCN(C)CC1` [Compound I-88], the IC50 in assay [1] (setting [2]) lay within 0.05 to 1 µM. For `O=C(N[C@@H](CC1CC1)C(=O)Nc1ccc(S(=O)(=O)NC2COC2)cc1)c1ccc(F)cc1` [Compound I-48], the IC50 in assay [1] (setting [2]) was 1 to 10 µM. The same measure, in the same setting: in the case of `CC(C)C[C@H](NC(=O)N1CCOCC1)C(=O)Nc1cccc2c(S(=O)(=O)NC(C)(C)C)cccc12` [Compound I-216] it was 1 to 10 µM. For `COc1cc(NC(=O)[C@H](CC2CCN(C)CC2)NC(=O)c2ccc(F)cc2)ccc1S(=O)(=O)NC1COC1` [Compound I-96], the 50% inhibitory concentration (IC50) in assay [1] (setting [2]) was in the range of 0.05 to 1 µM.

As to `CC(C)(C)NS(=O)(=O)c1cccc2c(NC[C@H](O)[C@H](Cc3ccccc3)NC(=O)c3ccc(F)cc3)cccc12` [Compound I-211], the IC50 in assay [1] (setting [3]) is more than 10 µM. The same measure, in the same setting: in the case of `COc1cc(NC(=O)[C@H](CC2CCOCC2)NC(=O)c2ccc(F)cc2)ccc1S(=O)(=O)NC(C)(C)C` [Compound I-2, (S)—N-(1-((4-(N-(tert-butyl)sulfamoyl)-3-methoxyphenyl)amino)-1-oxo-3-(tetrahydro-2H-pyran-4-yl)propan-2-yl)-4-fluorobenzamide] it was less than 0.05 µM; in that of `CNS(=O)(=O)N1CCC(NC(=O)[C@H](Cc2ccccc2)NC(=O)c2ccc(F)cc2)CC1` [Compound I-118], more than 10 µM. On the same count and under the same terms, to `CC(C)(C)NS(=O)(=O)c1ccc(NC(=O)[C@H](Cc2ccccc2)NC(=O)c2ncccn2)cc1` [Compound I-191] belongs more than 10 µM. As to `COc1cc(NC(=O)[C@H](CC(C)C)NC(=O)c2ccc(F)cc2)ccc1S(=O)(=O)NC(C)(C)CO` [Compound I-14], the IC50 in assay [1] (setting [2]) is 0.05 to 1 µM. As to `CC(C)C[C@@H](NC(=O)c1ccc(F)cc1)C(=O)Nc1ccc(S(=O)(=O)NC(C)(C)C)cc1` [Compound I-12], the 50% inhibitory concentration (IC50) in assay [1] (setting [3]) is more than 10 µM.

For the compound `CC(C)C[C@H](NC(=O)c1ccc(F)cc1)C(=O)NC1CN(C(=O)OCc2ccccc2)C1` [Compound I-248], the IC50 in assay [1] (setting [3]) is more than 10 µM. On the same count and under the same terms, in the case of `Cn1cnc(CNS(=O)(=O)c2ccc(NC(=O)[C@H](Cc3ccccc3)NC(=O)c3ccc(F)cc3)cc2)c1` [Compound I-238] it was less than 0.05 µM; in that of `CO[C@H]1C[C@@H](C(=O)Nc2ccc(S(=O)(=O)NC(C)(C)CO)cc2)N(C(=O)c2ccc(F)cc2)C1` [Compound I-291], more than 10 µM. `CC(C)(C)NS(=O)(=O)c1ccc(NC(=O)[C@H](Cc2ccccc2)NC(=O)c2ccc3cn[nH]c3c2)cc1` [Compound I-190]: the IC50 in assay [1] (setting [2]) lay in the range of 1 to 10 µM. Take `CC(C)C[C@H](NC(=O)c1ccccc1)C(=O)NC1CN(C#N)C1` [Compound I-249]: the concentration for half-maximal inhibition (IC50) in assay [1] (setting [3]) is less than 0.05 µM. On to `COc1cc(NC(=O)[C@H](CC(C)C)NC(=O)c2ccc(F)cc2)ccc1S(=O)(=O)NC(C)(C)C` [Compound I-13], for which, in assay [1] (setting [2]), the IC50 was 0.05 to 1 µM.

For `CC(C)(C)NS(=O)(=O)c1ccc(NC(=O)[C@H](CCO)NC(=O)c2ccc(F)cc2)cc1` [Compound I-242], the 50% inhibitory concentration (IC50) in assay [1] (setting [2]) fell in the range of 0.05 to 1 µM. On the same count and under the same terms, to `CN1CCC(C[C@H](NC(=O)c2ccc(F)cc2)C(=O)Nc2ccc(S(=O)(=O)NC(C)(C)CO)cc2)CC1` [Compound I-44] belongs 0.05 to 1 µM; to `CC(C)(C)NS(=O)(=O)c1ccc(-c2nc([C@H](Cc3ccccc3)NC(=O)c3ccc(F)cc3)n[nH]2)cc1` (stereo in doubt) [Compound I-55, N-(1-(5-(4-(N-(tert-butyl)sulfamoyl)phenyl)-1H-1,2,4-triazol-3-yl)-2-phenylethyl)-4-fluorobenzamide], 1 to 10 µM.

In the case of `O=C(Nc1ccc(S(=O)(=O)N[C@@H]2CCOC2)cc1)[C@@H]1C[C@@H](c2ccccc2)CN1C(=O)c1ccc(F)cc1` [Compound I-261], the IC50 in assay [1] (setting [2]) is 1 to 10 µM. Take `CC(C)(CO)NS(=O)(=O)c1ccc(NC(=O)[C@@H]2C[C@@H](c3ccccc3)CN2C(=O)c2ccc(F)cc2)cc1` [Compound I-262]: the IC50 in assay [1] (setting [2]) fell in the range of 1 to 10 µM. On the same count and under the same terms, to `O=C(NC(CC1CCNCC1)C(=O)Nc1ccc(S(=O)(=O)NC2COC2)cc1)c1ccc(F)cc1` (stereo not drawn) [Compound I-120] belongs 0.05 to 1 µM. As for `CC(C)C[C@H](NC(=O)c1ccc(F)cc1)C(=O)Nc1ccc(S(=O)(=O)NC(C)(C)C)nc1` [Compound I-16], the IC50 in assay [1] (setting [3]) is less than 0.05 µM. Regarding `CC(C)(C)NS(=O)(=O)c1cccc2c(NC(=O)[C@H](Cc3ccccc3)NC(=O)C3CCNCC3)cccc12` [Compound I-187], the IC50 in assay [1] (setting [3]) is more than 10 µM.

On to `CC(C)(C)NS(=O)(=O)c1ccc(NC(=O)C(CC(N)=O)NC(=O)c2ccc(F)cc2)cc1` (stereo not drawn) [Compound I-244], for which, in assay [1] (setting [3]), the IC50 was more than 10 µM.
